According to ChEMBL document CHEMBL3120150, “Syntheses and structure-activity relationships for some triazolyl p38α MAPK inhibitors” (Bioorg Med Chem Lett, 2014):
pIC50: −log10 of the molar value. The source made the active and inactive calls. The rule behind the calls is not given here.

Molecular target: Mitogen-activated protein kinase 14 (Homo sapiens, UniProt Q16539)
Assay: Inhibition of p38a MAPK (unknown origin) by radiometric assay
Conditions: not given

Mitogen-activated protein kinase 14, sequence (Q16539 whole entry): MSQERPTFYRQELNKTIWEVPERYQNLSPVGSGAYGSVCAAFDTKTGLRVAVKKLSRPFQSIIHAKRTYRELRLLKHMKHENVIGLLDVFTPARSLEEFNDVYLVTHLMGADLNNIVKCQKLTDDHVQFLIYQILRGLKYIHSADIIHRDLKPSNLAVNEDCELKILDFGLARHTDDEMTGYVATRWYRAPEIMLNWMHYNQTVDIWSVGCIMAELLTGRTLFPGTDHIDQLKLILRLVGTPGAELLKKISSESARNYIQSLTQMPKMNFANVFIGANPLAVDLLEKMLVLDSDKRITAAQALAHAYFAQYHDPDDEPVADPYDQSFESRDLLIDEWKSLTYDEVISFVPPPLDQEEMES

Row | Compound | pIC50
1 | Cn1c(-c2cn(-c3cccc(C(=O)NCCCO)c3)nn2)nc(-c2ccc(F)cc2)c1-c1ccncc1 | 6.54
2 | C#Cc1nc(-c2ccc(F)cc2)c(-c2ccncc2)o1 | 5.75
3 | CCOP(=O)(CCn1cc(-c2nc(-c3ccc(F)cc3)c(-c3ccncc3)n2C)nn1)OCC | < 4.00
4 | C[C@@H](C(=O)O)n1cc(-c2nc(-c3ccc(F)cc3)c(-c3ccncc3)n2C)nn1 | 5.84
5 | Cn1c(-c2cn(C[C@H]3O[C@@H](O)[C@H](O)[C@@H](O)[C@@H]3O)nn2)nc(-c2ccc(F)cc2)c1-c1ccncc1 | 6.40
6 | Cn1c(-c2cnnn2CC(=O)O)nc(-c2ccc(F)cc2)c1-c1ccncc1 | 5.38
7 | O[C@@H]1[C@@H](O)[C@H](O)O[C@H](Cn2cc(-c3nc(-c4ccc(F)cc4)c(-c4ccncc4)o3)nn2)[C@H]1O | 5.24
8 | OC[C@H]1O[C@H](O)[C@H](n2cc(-c3nc(-c4ccc(F)cc4)c(-c4ccncc4)o3)nn2)[C@@H](O)[C@@H]1O | 5.92
9 | Fc1ccc(-c2nc(-c3c[nH]nn3)oc2-c2ccncc2)cc1 | 6.42
10 | CN(C)c1ccc(-n2cc(-c3nc(-c4ccc(F)cc4)c(-c4ccncc4)n3C)nn2)cc1 | 5.85
11 | CC(=O)OC[C@H]1O[C@H](OC(C)=O)[C@H](n2cc(-c3nc(-c4ccc(F)cc4)c(-c4ccncc4)o3)nn2)[C@@H](OC(C)=O)[C@@H]1OC(C)=O | < 4.00
12 | O=C(O)c1ccccc1-n1cc(-c2nc(-c3ccc(F)cc3)c(-c3ccncc3)o2)nn1 | 5.19
13 | Cn1c(-c2cn(-c3cccc(C(=O)O)c3)nn2)nc(-c2ccc(F)cc2)c1-c1ccncc1 [listing 1 of 2 here] | 7.04
14 | CN(C)c1ccc(-n2cc(-c3nc(-c4ccc(F)cc4)c(-c4ccncc4)o3)nn2)cc1 | 4.71
15 | Cn1c(-c2cn(C(C)(C)C(=O)O)nn2)nc(-c2ccc(F)cc2)c1-c1ccncc1 | 5.83
16 | CC(=O)OC[C@H]1O[C@H](OC(C)=O)[C@H](n2cc(-c3nc(-c4ccc(F)cc4)c(-c4ccncc4)n3C)nn2)[C@@H](OC(C)=O)[C@@H]1OC(C)=O | < 4.00
17 | Cn1c(-c2cn(CC(=O)N3CCN(CCO)CC3)nn2)nc(-c2ccc(F)cc2)c1-c1ccncc1 | 5.42
18 | Cn1c(-c2cn(C3O[C@H](C(=O)O)[C@@H](O)[C@H](O)[C@H]3O)nn2)nc(-c2ccc(F)cc2)c1-c1ccncc1 (some centres undefined) | 6.23
19 | O=C(O)[C@H]1OC(n2cc(-c3nc(-c4ccc(F)cc4)c(-c4ccncc4)o3)nn2)[C@H](O)[C@@H](O)[C@@H]1O (some centres undefined) | 5.93
20 | Oc1ccccc1-n1cc(-c2nc(-c3ccc(F)cc3)c(-c3ccncc3)o2)nn1 | 5.66
21 | Cn1cnc(-c2ccc(F)cc2)c1-c1ccncc1 | 6.37
22 | Cn1c(-c2cn(CCOCCOCCOCCO)nn2)nc(-c2ccc(F)cc2)c1-c1ccncc1 | 4.95
23 | Cn1c(-c2cn([C@@H](CC(=O)O)C(=O)O)nn2)nc(-c2ccc(F)cc2)c1-c1ccncc1 | 5.64
24 | O=C(O)c1ccc(-n2cc(-c3nc(-c4ccc(F)cc4)c(-c4ccncc4)o3)nn2)cc1 | 6.72
25 | Cn1c(-c2cn(CC(=O)O)nn2)nc(-c2ccc(F)cc2)c1-c1ccncc1 [listing 1 of 2 here] | 6.37
26 | Cn1c(-c2cn(-c3cccc(C(=O)O)c3)nn2)nc(-c2ccc(F)cc2)c1-c1ccncc1 [listing 2 of 2 here] | 6.73

Row | Compound | pIC50
27 | Cn1c(-c2c[nH]nn2)nc(-c2ccc(F)cc2)c1-c1ccncc1 | 6.85
28 | Cn1c(-c2cn([C@@H]3[C@@H](O)[C@H](O)[C@@H](CO)O[C@@H]3O)nn2)nc(-c2ccc(F)cc2)c1-c1ccncc1 | 6.15
29 | OCCOCCOCCOCCOCCOCCOCCOCCn1cc(-c2nc(-c3ccc(F)cc3)c(-c3ccncc3)o2)nn1 | 4.63
30 | Cn1c(-c2cn(CC(=O)NCCO)nn2)nc(-c2ccc(F)cc2)c1-c1ccncc1 | 6.05
31 | C[C@H](Nc1nccc(-c2c(-c3ccc(F)cc3)nc3nc(N)ccn23)n1)c1ccccc1 | 8.22
32 | O=C(O)Cn1cc(-c2nc(-c3ccc(F)cc3)c(-c3ccncc3)o2)nn1 | 5.49
33 | Cn1c(-c2cn(CCOCCOCCOCCOCCOCCOCCOCCO)nn2)nc(-c2ccc(F)cc2)c1-c1ccncc1 | 4.94
34 | Cn1c(-c2cn(CC(=O)O)nn2)nc(-c2ccc(F)cc2)c1-c1ccncc1 [listing 2 of 2 here] | 6.13
35 | CCOC(=O)Cn1nncc1-c1nc(-c2ccc(F)cc2)c(-c2ccncc2)n1C | 4.25
36 | Cn1c(C#CCO)nc(-c2ccc(F)cc2)c1-c1ccncc1 | 6.34
37 | Cn1c(-c2cn(-c3ccc(C(=O)O)cc3)nn2)nc(-c2ccc(F)cc2)c1-c1ccncc1 | 6.85
38 | O=C(c1ccc(-n2cc(-c3nc(-c4ccc(F)cc4)c(-c4ccncc4)o3)nn2)cc1)N1CCN(CCO)CC1 | 5.62
39 | Cn1c(-c2cn(-c3ccccc3C(=O)O)nn2)nc(-c2ccc(F)cc2)c1-c1ccncc1 | 5.82
40 | Cn1c(-c2cn(CCO)nn2)nc(-c2ccc(F)cc2)c1-c1ccncc1 | 6.30
41 | OCCOCCOCCOCCn1cc(-c2nc(-c3ccc(F)cc3)c(-c3ccncc3)o2)nn1 | 4.90
42 | Cn1c(-c2cn(CCOCCOCCOCCN)nn2)nc(-c2ccc(F)cc2)c1-c1ccncc1 | 5.29
43 | Fc1ccc(-c2nc(-c3cn(Cc4ccccc4)nn3)oc2-c2ccncc2)cc1 | 3.80
44 | COC(=O)c1cccc(-n2cc(-c3nc(-c4ccc(F)cc4)c(-c4ccncc4)n3C)nn2)c1 | 6.00
45 | Cn1c(-c2cn(CCOP(=O)(O)O)nn2)nc(-c2ccc(F)cc2)c1-c1ccncc1 | 6.60
46 | Cn1c(-c2cn(CCP(=O)(O)O)nn2)nc(-c2ccc(F)cc2)c1-c1ccncc1 | 6.46
47 | Cn1c(-c2cn([C@H]3CCNC[C@@H]3F)nn2)nc(-c2ccc(F)cc2)c1-c1ccncc1 | 7.02
48 | C#Cc1nc(-c2ccc(F)cc2)c(-c2ccncc2)n1C | 6.14
49 | C[C@@H](C(=O)O)n1cc(-c2nc(-c3ccc(F)cc3)c(-c3ccncc3)o2)nn1 | 4.94
50 | CCOC(=O)Cn1cc(-c2nc(-c3ccc(F)cc3)c(-c3ccncc3)n2C)nn1 | 5.73
51 | Cn1c(-c2cn(-c3ccccc3O)nn2)nc(-c2ccc(F)cc2)c1-c1ccncc1 | 5.80

Test system: HUVEC
Assay: Inhibition of TNFalpha-induced IL-6 gene expression in HUVEC at 10 uM
Type: functional, cell-based
Conditions: Homo sapiens

Row | Compound | inhibition
52 | Cn1cnc(-c2ccc(F)cc2)c1-c1ccncc1 | Active
53 | Cn1c(-c2cn([C@@H]3[C@@H](O)[C@H](O)[C@@H](CO)O[C@@H]3O)nn2)nc(-c2ccc(F)cc2)c1-c1ccncc1 | Active
54 | C[S+]([O-])c1ccc(-c2nc(-c3ccc(F)cc3)c(-c3ccncc3)[nH]2)cc1 (centres undefined) | Active
55 | Cn1c(-c2cn([C@H]3CCNC[C@@H]3F)nn2)nc(-c2ccc(F)cc2)c1-c1ccncc1 | Active

Test system: HUVEC
Assay: Inhibition of TNFalpha-induced COX2 gene expression in HUVEC at 10 uM
Type: functional, cell-based
Conditions: Homo sapiens

Row | Compound | inhibition
56 | Cn1cnc(-c2ccc(F)cc2)c1-c1ccncc1 | Active
57 | Cn1c(-c2cn([C@@H]3[C@@H](O)[C@H](O)[C@@H](CO)O[C@@H]3O)nn2)nc(-c2ccc(F)cc2)c1-c1ccncc1 | Active
58 | C[S+]([O-])c1ccc(-c2nc(-c3ccc(F)cc3)c(-c3ccncc3)[nH]2)cc1 (centres undefined) | Active
59 | Cn1c(-c2cn([C@H]3CCNC[C@@H]3F)nn2)nc(-c2ccc(F)cc2)c1-c1ccncc1 | Active
